Results published in the NIST ThermoML archive (doi:10.1021/je800046k).

Experiments:
[1] = for surface tension liquid-gas: Pendant drop shape; for mass density: 101 kPa, Liquid
[2] = xn = mol fraction of the nth substance listed; conditions: for surface tension liquid-gas: Pendant drop shape; for mass density: 101 kPa, Liquid

CC(=O)OC(C)C [1-methylethyl ethanoate]
[1]
Conditions	mass density [kg/m3]	surface tension liquid-gas [mN/m]
298.15 K	866.25	21.89
308.15 K	854.54	20.81
313.15 K	848.61	20.29

CC(=O)OCC(C)C [2-methylpropyl ethanoate]
[1]
Conditions	mass density [kg/m3]	surface tension liquid-gas [mN/m]
298.15 K	866.06	23.15
308.15 K	855.51	22.16
313.15 K	850.16	21.64

CC(=O)OC(C)C [1-methylethyl ethanoate] + Cc1ccc(C)c(C)c1
[2], x1 = 1
Conditions	mass density [kg/m3]	surface tension liquid-gas [mN/m]
298.15 K	866.25	21.89
308.15 K	854.54	20.81
313.15 K	848.61	20.29

Cc1cc(C)cc(C)c1 [1,3,5-trimethylbenzene]
[1]
Conditions	mass density [kg/m3]	surface tension liquid-gas [mN/m]
298.15 K	861.12	28.05
308.15 K	852.94	27.21
313.15 K	848.82	26.78

CC(=O)OC(C)C [1-methylethyl ethanoate] + Cc1cc(C)cc(C)c1
[2], x1 = 1
Conditions	mass density [kg/m3]	surface tension liquid-gas [mN/m]
298.15 K	866.25	21.89
308.15 K	854.54	20.81
313.15 K	848.61	20.29

Cc1cc(C)cc(C)c1 [1,3,5-trimethylbenzene] + CC(=O)OCC(C)C
[2], x2 = 0
Conditions	mass density [kg/m3]	surface tension liquid-gas [mN/m]
298.15 K	861.12	28.05
308.15 K	852.94	27.21
313.15 K	848.82	26.78

Cc1ccc(C)c(C)c1 [1,2,4-trimethylbenzene]
[1]
Conditions	mass density [kg/m3]	surface tension liquid-gas [mN/m]
298.15 K	871.71	29.3
308.15 K	863.68	28.24
313.15 K	859.58	27.71

Cc1ccc(C)c(C)c1 [1,2,4-trimethylbenzene] + CC(=O)OCC(C)C
[2], x2 = 0
Conditions	mass density [kg/m3]	surface tension liquid-gas [mN/m]
298.15 K	871.71	29.3
308.15 K	863.68	28.24
313.15 K	859.58	27.71
